Measurements from patent US5567694A, “17-Aryl and 17-heterocyclyl-5β,14β-androstane derivatives active on the cardiovascular system, processes for their preparation and pharmaceutical compositions containing same” (SIGMA-TAU Industrie Farmaceutiche Riunite S.p.A., priority 1992, dated 1996).

Experiments:
Na^+,K^+ -ATPase [1] = assay type: binding; conditions: ^3 H-ouabain displacement, purified Na^+,K^+ -ATPase receptor
From the text: (§1) To test the affinity for the receptor site of the Na^+,K^+ -ATPase and the inhibitory activity on the enzyme, the following tests were used:
a) displacement of the specific ^3 H-ouabain binding from the Na^+,K^+ -ATPase receptor purified according to Jorghensen (Jorghensen P., BBA, 1974, 356, 36) and Erdmann ( Erdmann E. et al., Arzneim. Forsh., 1984, 34, 13 14);

Na^+,K^+ -ATPase [2] = assay type: biochemical; set-up: unit not given here; conditions: hydrolysis of ^32 P-ATP, purified Na^+,K^+ -ATPase
From the text: as §1
b) inhibition of the activity of the purified Na^+,K^+ -ATPase measured as % of hydrolysis of ^32 P-ATP in presence and in absence of the tested compound (Doucet A. et al., Am.

[3] = system: spontaneous hypertensive rats of the Milan (MHS); test: systolic blood pressure and heart rate in spontaneous hypertensive rats (MHS), indirect tail-cuff; assay type: in vivo, rat; conditions: for SBP (systolic blood pressure) / HR (heart rate): MHS rats, n = 7, 20 mg/Kg/os daily for ten days in METHOCEL 0.5% w/v; for SBP (systolic blood pressure): controls 172 +/- 2.0; for HR (heart rate): controls 328 +/- 8.6
Procedure: The ability of these compounds to lower blood pressure was tested by using animal models with genetic arterial hypertension, in particular, spontaneous hypertensive rats of the Milan (MHS) (Bianchi G., Ferrari P., Barber B., The Milan Hypertensive strain. In Handbook of hypertension. Vol.4: Experimental and genetic models of hypertension. Ed. W. de jong-Elsevier Science Publishers B.V.,1984: 328-349).
The procedure adopted to test the antihypertensive activity of the compounds on the above mentioned model was the following:
systolic blood pressure (SBP) and heart rate (HR) were measured by an indirect tail-cuff method in three-month old hypertensive rats (MHS) before beginning the treatment (basal values). The rats were then subdivided in two groups of at least 7 animals each, one receiving the compound the other, the control group, receiving only the vehicle. The compound, suspended in METHOCEL 0.5% (w/v), was administered daily by mouth, for ten days. SBP and HR were measured daily 6 and 24 hours after the treatment. At the end of the ten day treatment period, a washout period of at least two days was carried out, in order to check for how long the SBP was mantained low or the basal values were re-established.

Row | Compound | Binding ^3 H-Ouab. Displacement log IC50 (Na^+,K^+ -ATPase [1]) | Inhibitory Activity log IC50 (Na^+,K^+ -ATPase [2]) | SBP (systolic blood pressure) [3] | HR (heart rate) [3] | antihypertensive action ([3]; statement in words)
1 | C[C@]12CC[C@H](OCCO)C[C@H]1CC[C@@H]1[C@@H]2CC[C@]2(C)[C@@](O)(c3ccccc3)CC[C@]12O [Comp. I-ad, 3β-(2-Hydroxyethoxy)-17β-phenyl-5β-androstane-14β,17α-diol] | 5.2 | 4.0 | – | – | –
2 | C[C@]12CC[C@H](O)C[C@H]1CC[C@@H]1[C@@H]2CC[C@]2(C)[C@@](O)(c3ccccc3)CC[C@]12O [Comp. I-ac, 17β-Phenyl-5β-androstane-3β,14β,17α-triol] | 5.4 | 4.1 | 160 +/- 4.5 mm Hg | 331 +/- 8.5 beats/min. | –
3 | C[C@]12CC[C@H](OCCCN)C[C@H]1CC[C@@H]1[C@@H]2CC[C@]2(C)[C@@](O)(c3ccccc3)CC[C@]12O [Comp. I-ag, 3β-(3-Aminopropoxy)-17β-phenyl-5β-androstane-14β,17α-diol] | 5.9 | 4.6 | 157 +/- 4.2 mm Hg | 330 +/- 9.8 beats/min. | –
4 | C[C@]12CCC(=NNC(=N)N)C[C@H]1CC[C@@H]1[C@@H]2CC[C@]2(C)[C@@](O)(c3ccccc3)CC[C@]12O [Comp. I-ar, 3-Guanidinoimino-17β-phenyl-5β-androstane-14β,17α-diol] | 5.8 | 4.6 | – | – | –
5 | Cc1ncc([C@@]2(O)CC[C@]3(O)[C@@H]4CC[C@@H]5C[C@@H](O)CC[C@]5(C)[C@H]4CC[C@]23C)n1C [Comp. I-be, 17β-(1,2-Dimethyl-5-imidazolyl)-5β-androstane-3β,14β,17α-triol] | 5.4 | – | – | – | –
6 | C[C@]12CC[C@H](O)C[C@H]1CC[C@@H]1[C@@H]2CC[C@]2(C)[C@@](O)(c3ccc(O)cc3)CC[C@]12O [Comp. I-ay, 17β-(4-Hydroxyphenyl)-5β-androstane-3β,14β,17α-triol] | 5.6 | 4.5 | – | – | –
7 | CN(C)CCCO[C@H]1CC[C@@]2(C)[C@H](CC[C@@H]3[C@@H]2CC[C@]2(C)[C@@](O)(c4ccccc4)CC[C@]32O)C1 [Comp. I-ae, 3β-(3-Dimethylaminopropoxy)-17β-phenyl-5β-androstane-14β,17α-diol] | 5.9 | 4.7 | – | – | –
8 | CNCCO[C@H]1CC[C@@]2(C)[C@H](CC[C@@H]3[C@@H]2CC[C@]2(C)[C@@](O)(c4ccccc4)CC[C@]32O)C1 [Comp. I-am, 3β-(2-Methylaminoethoxy)-17β-phenyl-5β-androstane-14β,17α-diol] | 5.9 | 4.8 | – | – | –
9 | C[C@]12CC[C@H](SCCCN)C[C@H]1CC[C@@H]1[C@@H]2CC[C@]2(C)[C@@](O)(c3ccccc3)CC[C@]12O [Comp. I-bj] | 5.7 | 4.6 | – | – | –
10 | C[C@]12CC[C@H](OCC(O)CO)C[C@H]1CC[C@@H]1[C@@H]2CC[C@]2(C)[C@@](O)(c3ccccc3)CC[C@]12O (stereo partly drawn) [Comp. I-ao, 3β-((2RS)-2,3-Dihydroxypropoxy)-17β-phenyl-5β-androstane-14β,17α-diol] | 5.5 | 4.2 | – | – | –
11 | C[C@]12CC[C@H](O)C[C@H]1CC[C@@H]1[C@@H]2CC[C@]2(C)[C@@](O)(c3ccsc3)CC[C@]12O [Comp. 1-ba, 17β-(3-Thienyl)-5β-androstane-3β,14β,17α-triol] | 5.7 | 4.5 | – | – | –
12 | CN(C)c1ccc([C@@]2(O)CC[C@]3(O)[C@@H]4CC[C@@H]5C[C@@H](O)CC[C@]5(C)[C@H]4CC[C@]23C)cc1 [Comp. I-bf, 17β-(4-(N,N-Dimethylaminophenyl))-5β-androstane-3β,14β,17α-triol] | 5.7 | 4.6 | – | – | –
13 | CCN(CC)CCO[C@H]1CC[C@@]2(C)[C@H](CC[C@@H]3[C@@H]2CC[C@]2(C)[C@@](O)(c4ccc(OC)cc4)CC[C@]32O)C1 [Comp. I-av, 3β-(2-Diethylaminoethory)-17β-(4-methoxyphenyl)-5β-androstane-14β,17α-diol] | 6.0 | 4.8 | – | – | –
14 | C[C@]12CC[C@H](O)C[C@H]1CC[C@@H]1[C@@H]2CC[C@]2(C)[C@@](O)(c3cccnc3)CC[C@]12O [Comp. 1-bb, 17β-(3-Pyridyl)-5β-androstane-3β,14β,17α-triol] | 5.4 | 4.3 | 154 +/- 3.0 mm Hg | 339 +/- 6.8 beats/min. | –
15 | C[C@]12CC[C@H](OCCN3CCCC3)C[C@H]1CC[C@@H]1[C@@H]2CC[C@]2(C)[C@@](OCCN3CCCC3)(c3ccccc3)CC[C@]12O [Comp. I-ai, 3β,17α-Bis(2-(1-pyrrolidinyl)ethoxy)-17β-phenyl-5β-androstan-14β-ol] | 5.0 | – | – | – | –
16 | C[C@]12CC[C@H](O)C[C@H]1CC[C@@H]1[C@@H]2CC[C@]2(C)[C@@](O)(C3=CC(=O)OC3)CC[C@]12O [Ref. comp., 3β,14β,17α-trihydroxy-5β-card-20(22)-enolide, reference compound] | 5.9 | 5.3 | 174 +/- 2.1 mm Hg | 340 +/- 10.2 beats/min. | do not show antihypertensive action
17 | C[C@]12CC[C@H](OCC(N)CN)C[C@H]1CC[C@@H]1[C@@H]2CC[C@]2(C)[C@@](O)(c3ccccc3)CC[C@]12O (stereo partly drawn) [Comp. I-ap, 3β-((2RS)-2,3-Diaminopropoxy)-17β-phenyl-5β-androstane-14β,17α-diol] | 5.8 | 4.6 | – | – | –
18 | COc1ccc([C@@]2(O)CC[C@]3(O)[C@@H]4CC[C@@H]5C[C@@H](O)CC[C@]5(C)[C@H]4CC[C@]23C)cc1 [Comp. I-au, 17β-(4-Methoxyphenyl)-5β-androstane-3β,14β,17α-triol] | 5.6 | 4.5 | 156 +/- 4.1 mm Hg | 335 +/- 10.5 beats/min. | –
